Assay results: US20250034200A1, “Prodrugs of Neurosteroid Analogs and Uses Thereof” (priority 2021, published 2025)
Values after ≈ are worked out from the molar mass of the structure shown. Counter-ions that a name gives are not always drawn. Like-named read-outs stand apart in the source and are kept apart here.

How the values were obtained:
[1] = Aqueous stability assay (HPLC, pseudo first-order half-life); assay type: physicochemical; conditions: DPBS pH 7.0-7.3, 1 mg/mL, room temperature; for half-life at 1 mg/mL / half-life: buffer, read-out: PBS t1/2 (converted)
Description: Aqueous stability experiments were performed on an Agilent 1100 HPLC equipped with an Agilent 1200 autosampler. HPLC grade solvents were exclusively used during analysis, with acetonitrile being purchased from Sigma Aldrich, and water and formic acid provided by Fisher Scientific. […]
[…] All mixtures were then sonicated for 5 min or stirred until complete dissolution was achieved. Any precipitate observed in sample solutions was filtered with a PTFE syringe filter prior to analysis. Immediately after sample preparation, injection by the HPLC autosampler was performed, which was recorded as the initial time point (t=0 min). Samples were then kept in the autosampler at room temperature and injected at designated intervals without additional filtration or sample modification. Next, the area of the parent peak in each chromatogram was determined by automated integration in the Agilent ChemStation software. Pseudo first-order half-lives were then ascertained by calculating the percent of the parent compound remaining after each time point. Plots of time (x-axis) vs. the natural logarithm of percent parent remaining (y-axis) were subsequently constructed to determine the slope. Finally, the aqueous stability was evaluated using the following equation:
The HPLC conditions were as follows: injection volume, 1 μL; column temperature: 40° C.; detector: 254 nm; stationary phase: Zorbax Eclipse XDB-C18 (4.6×150 mm, 5 μm); flow rate: 1 mL/min; mobile phase: 80-95% acetonitrile in H2O (0.1% formic acid).

[2] = Plasma stability assay (LC-MS/MS); assay type: in vitro ADME; conditions: human plasma, 37° C., 3 μM; for half-life: read-out: Plasma t1/2 (converted)
Description: Procaine and procainamide were purchased from Sigma Aldrich. HPLC-grade acetonitrile, water, methanol, and formic acid were purchased from Fisher Scientific. Human plasma (Cat. No. […]2N) was obtained from BIOIVT, and PBS (1×Dulbecco's, pH 7.4) from Thermo Fisher Scientific.
Test compounds were dissolved in DMSO to make a stock solution of 10 mM and then diluted to 500 μM in buffer or 70% methanol. Human plasma was thawed at ambient temperature and aliquoted (994.0 μL) to a 1.5 mL Eppendorf tube in duplicates (vials A and B) for each compound. The plasma was incubated at 37° C. for 10 min in an incubator shaker at 150 RPM; the reaction was initiated by addition of the test compound (6.0 μL), followed by vortex mixing. The total reaction volume was 1000 μL, the final organic solvent concentrations were […] (when 70% methanol was used for dilution) and 0.03% DMSO, and the final concentration of the test compound was 3 μM. The spiked plasma samples were incubated at 37° C. for 4 h. The reactions were terminated at time point 0, 15, 30, 60, 120, 180, and 240 min by taking a 100 μL aliquot from the test incubation mixture and immediately quenching it by adding it into ice-cold acetonitrile or methanol (150 μL) containing 2 μM internal standard (ISTD), followed by vortex mixing. The ISTD was d5-7-ethoxy coumarin. The samples were then centrifuged at 15000 RPM for 25 min at 4° C., and the supernatant was transferred to an LC-MS vial for analysis by LC-MS/MS. Each time point was tested in duplicates followed by in-between blank washes to avoid carryover and to equilibrate the column.
Procaine (poor plasma stability) and procainamide (good plasma stability) were used as controls at the same concentration as that of the test compound. These controls were run in parallel to test the assay's competency. Matrix blank was prepared by adding acetonitrile or methanol containing ISTD to plasma samples without any of the test or control compounds. Also, an additional control sample was made to simply monitor compound degradation in PBS buffer.
Below is a summary of samples prepared for a given test compound in a typical plasma stability assay: • Test compound (TC): 994 μL human plasma+6.0 μL TC (Vial A) 994 μL human plasma+6.0 μL TC (Vial B) • Control: 596 μL human plasma+3.6 μL (procaine+procainamide) • Blank matrix: 500 μL PBS buffer+100 μL human plasma • Additional control: 142 μL PBS buffer+0.9 μL TC • Quenching mixture: 150 μL acetonitrile or methanol with ISTD (2 μM) • Final volume: 250 μL (100 μL from the incubation mixture+150 μL quenching mixture; final ISTD conc.: 1.2 μM)
LC-MS/MS analysis was performed using Agilent 1260 Infinity II HPLC, coupled with an Agilent G6460 triple quadrupole mass spectrometer (Agilent Technologies, USA). The data were acquired and processed using the Agilent 6460 Quantitative Analysis data processing software.
Reverse-phase HPLC separation for each compound was achieved on an Agilent InfinityLab Poroshell 120 C18 column (2.1×50 mm, 2.7 μm) with a mobile phase composed of methanol/water with 0.1% formic acid or acetonitrile/water with 0.1% formic acid at a flow rate of 0.5 mL/min. Each method was developed in the presence of the ISTD. The column temperature was maintained at 40° C. The detection was operated using the Agilent Jet-Stream electrospray positive ionization under the multiple reaction monitoring mode. The mass spec conditions were as follows: dwell time 100 ms; gas flow 10 L/min; nebulizer pressure 45 psi; delta EMV 200 V.
Plots of time (x-axis) vs. the natural logarithm of percent parent remaining (y-axis) were subsequently constructed to determine the slope. Finally, the plasma stability was evaluated using the following equation: […]

[3] = Nephelometry (aqueous solubility); assay type: physicochemical; conditions: DPBS with 1% DMSO, aqueous buffer, kinetic from dmso stock, DPBS pH 7.0-7.3, 1% DMSO, 25° C.
From the text: Well A1 of the plate contained 100% DMSO.

Which half-life at 1 mg/mL [1] does the source give for `C/C(=N\OC(=O)NCCN)[C@H]1CC[C@H]2[C@@H]3CCC4=CC(=O)CC[C@]4(C)[C@H]3CC[C@]12C` [32a, (8S,9S,10R,13S,14S,17S)-17-((E)-1-((((2-aminoethyl)carbamoyl)oxy)imino)ethyl)-10,13-dimethyl-1,2,6,7,8,9,10,11,12,13,14,15,16,17-tetradecahydro-3H-cyclopenta[a]phenanthren-3-one hydrochloride] here?
The half-life at 1 mg/mL was > 30 h.

What about the “Plasma t1/2” value [2] of the same compound?
The value was >2 h.

And the solubility at 90 min [3]?
The solubility at 90 min was > 750 µM.

Which results are given for `C/C(=N\OC(=O)N(CCN)CCN)[C@H]1CC[C@H]2[C@@H]3CCC4=CC(=O)CC[C@]4(C)[C@H]3CC[C@]12C.O=C(O)C(F)(F)F.O=C(O)C(F)(F)F` [53j, (8S,9S,10R,13S,14S,17S)-17-((E)-1-(((bis(2-aminoethyl)carbamoyl)oxy)imino)ethyl)-10,13-dimethyl-1,2,6,7,8,9,10,11,12,13,14,15,16,17-tetradecahydro-3H-cyclopenta[a]phenanthren-3-one bis(2,2,2-trifluoroacetate)]?
PBS t1/2 [1]: 10.13 ± 0.41 h; solubility at 90 min [3]: > 750 µM

What does the source list for `C/C(=N\OC(=O)NCCN(C)C)[C@H]1CC[C@H]2[C@@H]3CCC4=CC(=O)CC[C@]4(C)[C@H]3CC[C@]12C.Cl` [compound 34, (E)-9-((8S,9S,10R,13S,14S,17S)-10,13-dimethyl-3-oxo-2,3,6,7,8,9,10,11,12,13,14,15,16,17-tetradecahydro-1H-cyclopenta[a]phenanthren-17-yl)-2-methyl-7-oxa-2,5,8-triazadec-8-en-6-one hydrochloride]?
half-life ([1]; d (days)): 787 h; Plasma t1/2 [2]: >3.5 h; solubility at 90 min [3]: > 750 µM

For `CNCCN(CCNC)C(=O)O/N=C(\C)[C@H]1CC[C@H]2[C@@H]3CCC4=CC(=O)CC[C@]4(C)[C@H]3CC[C@]12C.Cl.Cl` [53i, (E)-9-((8S,9S,10R,13S,14S,17S)-10,13-dimethyl-3-oxo-2,3,6,7,8,9,10,11,12,13,14,15,16,17-tetradecahydro-1H-cyclopenta[a]phenanthren-17-yl)-5-(2-(methylamino)ethyl)-7-oxa-2,5,8-triazadec-8-en-6-one dihydrochloride], which “PBS t1/2” value [1] is on record?
Its value is 1.51 ± 0.05 h.

What about the solubility at 90 min [3] of the same compound?
Its solubility at 90 min is > 750 µM.

What does the source list for `C/C(=N\OC(=O)NC[C@@H]1CCCCN1)[C@H]1CCC2[C@@H]3CCC4=CC(=O)CC[C@]4(C)[C@H]3CC[C@@]21C` (stereo partly drawn) [32i, (8S,9S,10R,13S,17S)-10,13-dimethyl-17-((E)-1-((((((S)-piperidin-2-yl)methyl)carbamoyl)oxy)imino)ethyl)-1,2,6,7,8,9,10,11,12,13,14,15,16,17-tetradecahydro-3H-cyclopenta[a]phenanthren-3-one hydrochloride]?
half-life at 1 mg/mL ([1]; d (days)): 684 h; solubility at 90 min [3]: > 750 µM

With `CNCCN(CCN(C)C)C(=O)O/N=C(\C)[C@H]1CC[C@H]2[C@@H]3CCC4=CC(=O)CC[C@]4(C)[C@H]3CC[C@]12C.O=C(O)C(F)(F)F` [53f, (E)-9-((8S,9S,10R,13S,14S,17S)-10,13-dimethyl-3-oxo-2,3,6,7,8,9,10,11,12,13,14,15,16,17-tetradecahydro-1H-cyclopenta[a]phenanthren-17-yl)-2-methyl-5-(2-(methylamino)ethyl)-7-oxa-2,5,8-triazadec-8-en-6-one 2,2,2-trifluoroacetate] as the compound, how does the “PBS t1/2” value [1] read?
Its value is 2.17 ± 0.02 h.

And the solubility at 90 min [3]?
Its solubility at 90 min is > 500 µM.

For `C/C(=N\OC(=O)N(C)CCO)[C@H]1CC[C@H]2[C@@H]3CCC4=CC(=O)CC[C@]4(C)[C@H]3CC[C@]12C` [compound 33, (8S,9S,10R,13S,14S,17S)-17-((E)-1-((((2-hydroxyethyl)(methyl)carbamoyl)oxy)imino)ethyl)-10,13-dimethyl-1,2,6,7,8,9,10,11,12,13,14,15,16,17-tetradecahydro-3H-cyclopenta[a]phenanthren-3-one], which half-life [1] is on record?
The half-life was 38.5 h.

And the solubility at 90 min [3]?
The solubility at 90 min was 124 ± 3.28 µM (≈ 53.3 µg/mL).

Which half-life ([1]; d (days)) does the source give for `CNCC(C)(C)CN(C)C(=O)O/N=C(\C)[C@H]1CCC2[C@@H]3CCC4=CC(=O)CC[C@]4(C)[C@H]3CC[C@@]21C.Cl` (stereo partly drawn) [compound 40, (E)-10-((8S,9S,10R,13S,17S)-10,13-dimethyl-3-oxo-2,3,6,7,8,9,10,11,12,13,14,15,16,17-tetradecahydro-1H-cyclopenta[a]phenanthren-17-yl)-4,4,6-trimethyl-8-oxa-2,6,9-triazaundec-9-en-7-one hydrochloride] here?
Its half-life is 547 h.

And the half-life [2]?
The half-life was > 4 h.

With `C/C(=N\OC(=O)N(C)C[C@@H]1CCCCN1)[C@H]1CCC2[C@@H]3CCC4=CC(=O)CC[C@]4(C)[C@H]3CC[C@@]21C.Cl` (stereo partly drawn) [32l, (8S,9S,10R,13S,17S)-10,13-dimethyl-17-((E)-1-(((methyl(((S)-piperidin-2-yl)methyl)carbamoyl)oxy)imino)ethyl)-1,2,6,7,8,9,10,11,12,13,14,15,16,17-tetradecahydro-3H-cyclopenta[a]phenanthren-3-one hydrochloride] as the compound, how does the half-life ([1]; d (days)) read?
Its half-life is 475 h.

What about the half-life [2] of the same compound?
Its half-life is 6.8 h.

With `C/C(=N\OC(=O)OCCN(C)C)[C@H]1CC[C@H]2[C@@H]3CCC4=CC(=O)CC[C@]4(C)[C@H]3CC[C@]12C.Cl` [compound 35, (E)-9-((8S,9S,10R,13S,14S,17S)-10,13-dimethyl-3-oxo-2,3,6,7,8,9,10,11,12,13,14,15,16,17-tetradecahydro-1H-cyclopenta[a]phenanthren-17-yl)-2-methyl-5,7-dioxa-2,8-diazadec-8-en-6-one hydrochloride] as the compound, how does the half-life [1] read?
The half-life was 3.5 ± 0.6 h.

And the “Plasma t1/2” value [2]?
Its value is 7.2 h.

Which “PBS t1/2” value [1] does the source give for `CNCCN(C(=O)O/N=C(\C)[C@H]1CC[C@H]2[C@@H]3CCC4=CC(=O)CC[C@]4(C)[C@H]3CC[C@]12C)C1CCC1.O=C(O)C(F)(F)F` [53c, (E)-5-cyclobutyl-9-((8S,9S,10R,13S,14S,17S)-10,13-dimethyl-3-oxo-2,3,6,7,8,9,10,11,12,13,14,15,16,17-tetradecahydro-1H-cyclopenta[a]phenanthren-17-yl)-7-oxa-2,5,8-triazadec-8-en-6-one 2,2,2-trifluoroacetate] here?
Its value is 11.79 ± 0.51 h.

What about the solubility at 90 min [3] of the same compound?
The solubility at 90 min was > 750 µM.

For `CNCCCN(C)C(=O)O/N=C(\C)[C@H]1CC[C@H]2[C@@H]3CCC4=CC(=O)CC[C@]4(C)[C@H]3CC[C@]12C.Cl` [compound 39, (E)-10-((8S,9S,10R,13S,14S,17S)-10,13-dimethyl-3-oxo-2,3,6,7,8,9,10,11,12,13,14,15,16,17-tetradecahydro-1H-cyclopenta[a]phenanthren-17-yl)-6-methyl-8-oxa-2,6,9-triazaundec-9-en-7-one hydrochloride], which half-life ([1]; d (days)) is on record?
Its half-life is > 720 h.

What about the “Plasma t1/2” value [2] of the same compound?
The value was >4 h.
